Data reported in patent publication US20050152835A1, “Technetium-99M glucarate methods of use for monitoring tissues” (priority 2003, published 2005).

How the values were obtained:
MCF7 breast tumors = assay: FASTSPECT dynamic imaging of MCF7 tumor xenografts (MCF7/S and MCF7/D40 together); type: in vivo, SCID mice
Experimental: Tumor cell lines used. MCF7/S: Cells are parental, drug (doxorubicin) sensitive, breast carcinoma cells. MCF7/D40: Cells were generated in vitro by successive culturing parental MCF7 cells in slowly increasing concentrations of doxorubicin with a total selection time of 31 months. Twenty-eight SCID mice were studied. MCF7/S or MCF7/D40 tumors were grown for 10-14 days after subcutaneous injection of 1×10^6 cells into the right thigh. Groups of mice with the xenografted tumors included: (MCF7/S group: MIBI: n=9; GLA: n=8) and (MCF7/D40 group: MIBI: n=6; GLA: n=5).
The dynamic imaging system SPECT consisted of 24 small modular gamma cameras. Each modular camera consists of a 10 cm×10 cm NaI(Tl) scintillation crystal, 4 square (5 cm×5 cm) Hamamatsu photomultiplier tubes. The system included a cylindrical aperture with twenty four 1-mm diameter pinholes drilled in the aperture. A point source in the center of the field of view is projected simultaneously to the center of each camera. Total magnification is 3.5 in a 3.0 cm×3.2 cm×3.2 cm field of view. The spatial resolution of the system is about 1.0 mm, with a sensitivity of 13.3 cps/μCi.
^99mTc-GLA or ^99mTc-MIBI (5-8 mCi, 185-296 MBq) was injected via a jugular vein catheter. Dynamic images were acquired for 2 hours. Twenty-four projections were obtained, one from each camera. Each scintillation event within the camera's NaI crystal was registered as the digitized outputs from the camera's four photomultiplier tubes. The four photomultiplier outputs were compared to a 20-bit look-up table derived from a calibration procedure that involved moving a collimated source across the camera face.
Tumor image reconstruction was performed using 100 iterations of the maximum-likelihood expectation-maximization (ML-EM) algorithm. Using SlicerDicer software, three-dimensional images were computed to provide images in a 33×49×49 voxels format, and generate tomographic transaxial, coronal and sagittal slices with one-pixel thickness (1.0 mm). Regions of interest (ROI) over the tumors were created and applied to the dynamic images for determining time-activity curves. The percent washout rate relative to the peak uptake of the tumors were calculated.

BT20 tumors = conditions: cited from earlier work

Q: With ^99mTc-glucarate as the substance, how does the “time tumors remained detectable after injection” value (MCF7 breast tumors; Example 3) read?
A: at least 2 hrs

Q: And the “time to initial visualization of tumors after injection” value (MCF7 breast tumors; FASTSPECT imaging, all tumors of the glucarate groups, i.v.)?
A: ≤ 5 min

Q: And the “time to unequivocal localization/visualization of tumors after injection” value (MCF7 breast tumors; FASTSPECT imaging, i.v.)?
A: 10 to 30 min

Q: And the “time radioactive accumulation in the MCF7 tumors remained post-injection” value (MCF7 breast tumors; dynamic images)?
A: at least 120 minutes

Q: What about the “tumor uptake compared with 99mTc-DTPA” value (BT20 tumors; BT20 breast tumors) of the same substance?
A: significantly greater

Q: And the “tumor to non-tumor (shoulder region tissue) ratio” value (BT20 tumors; twelve hours after intravenous injection)?
A: 20.53

Q: What about the “tumor uptake compared with 99mTc-sestamibi” value (BT20 tumors; xenografted BT20 tumors) of the same substance?
A: significantly higher uptake
